Converted amounts (≈) assume the structure as drawn. Read-outs that look alike come from different tables or passages of the source. Values belong to the compound of their own block, whether it stands above or below them.
Tests used:
C. difficile [1] = assay: MIC against C. difficile (strain not named; 14 strains overall); type: cell-based, Clostridium difficile; details: for C. difficile MIC: strain not named
C. difficile [2] = details: cited from earlier work
C. difficile ATCC43255 = assay: MIC, broth microdilution; type: cell-based; details: Clostridioides difficile
[3] = tested on: DNA, protein and peptidoglycan synthesis in C. difficile ATCC 43255; assay: Macromolecular synthesis assays; type: cell-based; details: N-acetyl-d-[6-3H]-glucosamine incorporation; ½ MIC; 120 min
Text: Macromolecular synthesis assays. The method of Mathur et al (J Antimicrob Chemother 2011, 66(5), 1087) was used with a few modifications. [2,8-^3H]-adenine (40 Ci/mmol), 1-[3,4,5-^3H(N)]-leucine (120 Ci/mmol), and N-acetyl-d-[6-^3H]-glucosamine (30 Ci/mmol) were purchased from Perkin Elmer (Waltham, MA). Ciproflaxin, linezolid, and oxacillin, were used as positive controls for DNA, protein, and peptidoglycan, respectively. Ciprofloxacin and oxacillin were purchased from Sigma-Aldrich (St. Louis, MO), linezolid was obtained from AmplaChem Inc. (Carmel, IN). […] Aliquots were taken every 30 min for radioactive counting and viability. Optimal incubation times were 60 min for DNA, 180 min for protein, and 120 min for peptidoglycan.

Veillonella sp. HM-49 = assay: MIC against common gut bacteria; type: cell-based; details: SP.HM49; Veillonella sp. HM-49; read-out: MIC
C. difficile ATCC43598 = assay: MIC, broth microdilution; type: cell-based; details: Clostridioides difficile, C. difficile ATCC43598
C. difficile infection = details: patients treated for CDI; cited from earlier work
C. difficile BAA-1803 = assay: MIC, broth microdilution; type: cell-based; details: Clostridioides difficile, BAA1803, C. difficile BAA-1803 (NAP1, ribotype 027)
[4] = tested on: Fusobacterium nucleatum HM-992; assay: MIC against common gut bacteria; type: cell-based; details: HM992; Fusobacterium nucleatum HM-992; read-out: MIC
Bacteroides eggerthii = assay: MIC against common gut bacteria; type: cell-based; details: read-out: MIC
Bacteroides fragilis = assay: MIC against common gut bacteria; type: cell-based; details: read-out: MIC
C. difficile BAA-1870 = assay: MIC, broth microdilution; type: cell-based; details: Clostridioides difficile, BAA1870, C. difficile BAA-1870 (NAP1, ribotype 27)
[5] = tested on: Lactobacillus reuteri HM-102; assay: MIC against common gut bacteria; type: cell-based; details: Limosilactobacillus reuteri, HM102; Lactobacillus reuteri HM-102; read-out: MIC
[6] = tested on: Corynebacterium sp. HM-784; assay: MIC against common gut bacteria; type: cell-based; details: SP.HM784; Corynebacterium sp. HM-784; incubated aerobically; read-out: MIC
Method: Minimally-inhibitory concentrations. MICs for C. difficile strains and the common gut bacteria were determined using broth microdilution techniques as reported earlier using brucella broth supplemented with hemin and vitamin K or supplemented BHIS broth (Babakhani et al., J Antimicrob Chemother 2013, 68(3), 515). Lactobacillus MRS broth was used for lactobacillus strains. […] All incubations unless specified otherwise were carried out at 24 or 48 h at 37° C. in an anaerobic chamber (Whitley DG250 workstation, Microbiology International, Frederick, MD). Corynebacterium and lactobacillus species were incubated aerobically.

[7] = tested on: Bifidobacterium longum HM-846; assay: MIC against common gut bacteria; type: cell-based; details: HM846; Bifidobacterium longum HM-846; read-out: MIC
Bacteroides caccae = assay: MIC against common gut bacteria; type: cell-based; details: read-out: MIC
C. difficile BAA-1812 = assay: MIC, broth microdilution; type: cell-based; details: Clostridioides difficile, BAA1812, C. difficile BAA-1812
[8] = tested on: Lactobacillus gasseri HM-644; assay: MIC against common gut bacteria; type: cell-based; details: HM644; Lactobacillus gasseri HM-644; read-out: MIC
C. difficile BAA-1801 = assay: MIC, broth microdilution; type: cell-based; details: Clostridioides difficile, BAA1801, C. difficile BAA-1801 (nontoxigenic)
[9] = tested on: Bacteroides fragilis HM-709; assay: MIC against common gut bacteria; type: cell-based; details: HM709; Bacteroides fragilis HM-709; read-out: MIC
Bacteroides ovatus = assay: MIC against common gut bacteria; type: cell-based; details: read-out: MIC
Bacteroides vulgatus = assay: MIC against common gut bacteria; type: cell-based; details: Phocaeicola vulgatus; Bacteroides vulgatus; read-out: MIC
C. difficile BAA-1804 = assay: MIC, broth microdilution; type: cell-based; details: Clostridioides difficile, BAA1804, C. difficile BAA-1804
[10] = ATCC43255, FIG. 3 legend, C. difficile, read-out: MIC of positive controls of the macromolecular synthesis assays

SMILES: Oc1ccc(-c2nc(-c3ccc(OC4CCCC4)cc3)no2)cc1 [xxii]
C. difficile MIC (C. difficile [1]): 2 µg/mL

SMILES: CCCCCc1ccc(/C(C)=C/C(=O)N[C@H](Cc2c[nH]c3ccccc23)C(=O)N[C@H](CC(N)=O)C(=O)N[C@@H](CC(=O)O)C(=O)N[C@@H]2C(=O)NCC(=O)N[C@@H](CCCN)C(=O)N[C@@H](CC(=O)O)C(=O)N[C@H](C)C(=O)N[C@@H](CC(=O)O)C(=O)NCC(=O)N[C@H](CO)C(=O)N[C@@H]([C@H](C)CC(=O)O)C(=O)N[C@@H](CC(=O)c3ccccc3N)C(=O)O[C@@H]2C)cc1 [surotomycin]
Inhibition of toxin production (C. difficile [2]; […]): nor inhibits toxin production

SMILES: Cc1onc(-c2ccccc2)c1C(=O)N[C@@H]1C(=O)N2[C@@H]1SC(C)(C)[C@@H]2C(=O)O [oxacillin]
MIC (C. difficile ATCC43255; [10]): 8 µg/mL
Inhibition of peptidoglycan synthesis [3]: 54.1±13%

SMILES: O=C(O)c1cn(C2CC2)c2cc(N3CCNCC3)c(F)cc2c1=O [ciprofloxacin]
MIC (C. difficile ATCC43255; [10]): 8 µg/mL

SMILES: Cc1ncc([N+](=O)[O-])n1CCO [metronidazole]
MIC (Veillonella sp. HM-49): 2 µg/mL (≈ 11.7 µM)
MIC (C. difficile ATCC43598; 24 h, read-out: MIC at 24 h): 0.125 µg/mL (≈ 0.73 µM)
MIC (C. difficile ATCC43598; 48 h, read-out: MIC at 48 h): 0.125 µg/mL (≈ 0.73 µM)
Patients with recurrence of the infection (C. difficile infection): About 25%
MIC (C. difficile BAA-1803; 24 h, read-out: MIC at 24 h): 0.25 µg/mL (≈ 1.46 µM)
MIC (C. difficile BAA-1803; 48 h, read-out: MIC at 48 h): 0.5 µg/mL (≈ 2.92 µM)
MIC [4]: 2 µg/mL (≈ 11.7 µM)
MIC (Bacteroides eggerthii): 2 µg/mL (≈ 11.7 µM)
MIC (C. difficile ATCC43255; C. difficile ATCC43255, 24 h, read-out: MIC at 24 h): 0.01 µg/mL (≈ 0.0584 µM)
MIC (C. difficile ATCC43255; C. difficile ATCC43255, 48 h, read-out: MIC at 48 h): 0.01 µg/mL (≈ 0.0584 µM)
Activity against C. difficile spores (C. difficile [2]; at 8× or 80× MIC): not active
Inhibition of toxin production (C. difficile [2]; at 8×MIC): Neither vancomycin nor metronidazole inhibit toxin production
MIC (Bacteroides fragilis): 1 µg/mL (≈ 5.84 µM)
MIC (C. difficile BAA-1870; 24 h, read-out: MIC at 24 h): 0.25 µg/mL (≈ 1.46 µM)
MIC (C. difficile BAA-1870; 48 h, read-out: MIC at 48 h): 0.5 µg/mL (≈ 2.92 µM)
MIC [5]: > 32 µg/mL
MIC [6]: > 32 µg/mL
MIC [7]: 0.5 µg/mL (≈ 2.92 µM)
MIC (Bacteroides caccae): 2 µg/mL (≈ 11.7 µM)
MIC (C. difficile BAA-1812; 24 h, read-out: MIC at 24 h): 0.25 µg/mL (≈ 1.46 µM)
MIC (C. difficile BAA-1812; 48 h, read-out: MIC at 48 h): 0.25 µg/mL (≈ 1.46 µM)
MIC [8]: > 32 µg/mL
MIC range in 14 C. difficile strains (C. difficile [1]; 14 C. difficile strains): 0.1 to 0.25 µg/mL
MIC (C. difficile BAA-1801; 24 h, read-out: MIC at 24 h): 0.125 µg/mL (≈ 0.73 µM)
MIC (C. difficile BAA-1801; 48 h, read-out: MIC at 48 h): 0.125 µg/mL (≈ 0.73 µM)
MIC [9]: 0.5 µg/mL (≈ 2.92 µM)
MIC (Bacteroides ovatus): 2 µg/mL (≈ 11.7 µM)
MIC (Bacteroides vulgatus): 2 µg/mL (≈ 11.7 µM)
MIC (C. difficile BAA-1804; 24 h, read-out: MIC at 24 h): 0.25 µg/mL (≈ 1.46 µM)
MIC (C. difficile BAA-1804; 48 h, read-out: MIC at 48 h): 0.25 µg/mL (≈ 1.46 µM)

Continued, values first:

C. difficile MIC (C. difficile [1]): 2 µg/mL
SMILES: Oc1ccc(-c2nc(-c3ccc(OC4CCCC=C4Br)cc3)no2)cc1 (centres unmarked) [ix]

C. difficile MIC (C. difficile [1]): 4 µg/mL
SMILES: Oc1ccc(-c2nc(-c3ccc(OC(F)(F)F)cc3)no2)cc1 [xvii]

MIC (C. difficile ATCC43255; [10]): 2 µg/mL
SMILES: CC(=O)NC[C@H]1CN(c2ccc(N3CCOCC3)c(F)c2)C(=O)O1 [linezolid]

C. difficile MIC (C. difficile [1]): 2 µg/mL
SMILES: Oc1ccc(-c2nc(-c3ccc(OC4CCC=C4Br)cc3)no2)cc1 (centres unmarked) [xi]

C. difficile MIC (C. difficile [1]): 4 µg/mL
SMILES: NCc1ccc(-c2nc(-c3ccc(Oc4ccc(C(F)(F)F)cc4)cc3)no2)cc1 [xxi]

C. difficile MIC (C. difficile [1]): 8 µg/mL
SMILES: Oc1ccc(-c2nc(-c3ccc(OC4CC4)cc3)no2)cc1 [vii]

Reference: patent US12054466B2, “Compounds for the treatment of clostridium difficile infection” (University of Notre Dame du Lac, priority 2016, dated 2024)
